Measurements taken from BindingDB's records for doi:10.1016/j.chembiol.2012.04.012 (Albert Einstein College of Medicine, 2012).
pKi: −log10 of the molar value.

Biological target: T1, Hypoxanthine-guanine-xanthine phosphoribosyltransferase (Plasmodium falciparum (isolate FCR-3 / Gambia), UniProt P20035)
T1 sequence (P20035 whole entry): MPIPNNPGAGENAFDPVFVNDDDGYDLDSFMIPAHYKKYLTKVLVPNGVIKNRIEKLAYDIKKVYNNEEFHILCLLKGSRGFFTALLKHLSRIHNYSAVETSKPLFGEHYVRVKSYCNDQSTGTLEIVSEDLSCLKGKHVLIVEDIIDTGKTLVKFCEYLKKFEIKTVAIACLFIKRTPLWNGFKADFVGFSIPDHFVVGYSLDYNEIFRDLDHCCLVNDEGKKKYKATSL
Experiment: Inhbition Assay
Details: pH 7.6; 37 °C
Experimental: PfHGXPRT activity was measured using spectrophotometric assay observing the conversion of xanthine and 5-phospho-alpha-D-ribose-1-pyrophosphate to xanthosine-5'-monophosphate and inorganic pyrophosphate (PPi) at 247nm or the conversion of guanine and PRPP to guanosine-5'-monophosphate and PPi on a Varian Cary 100 spectrophotometer.

pKi | SMILES
9.19 | O=c1[nH]cnc2c(N[C@H](CO)CCP(=O)(O)O)c[nH]c12 [HGXPRT Inhibitor, 3]
7.97 | O=c1[nH]cnc2c(NCCCP(=O)(O)O)c[nH]c12 [HGXPRT Inhibitor, 2]
